In US20220117938A1, “COMBINATON THERAPY WITH A DON PRODRUG AND AN IMMUNE CHECKPOINT INHIBITOR” (DRACEN PHARMACEUTICALS, INC., priority 2019, published 2022):

Tested on: CT26.WT tumors
Assay: Anti-tumor efficacy of Compound 1 with and without anti-PD-1 in the CT26.WT murine colorectal model (Example 2B)
Type: in vivo, Mus musculus
Conditions: for Tumor volume (mm^3), Mean ± SEM: n = 8; for ILS (%) / MST: endpoint tumor volume 2000 mm^3; for RTV at day 15 / T/C (%) / TGI (%) / Tumor Size (mm^3) at day 15, Mean ± SEM: day 15
Procedure: Female BALB/c mice were inoculated subcutaneously at right flank with CT26.WT cells for tumor development. Five days after tumor inoculation, 48 mice with tumor size ranging from 39-61 mm^3 (average tumor size 49 mm^3) were selected and assigned into 6 groups using stratified randomization with 8 mice per group based upon their tumor volumes. The treatments were started from the day of randomization (defined as D0), Group 1 was treated with Vehicle (Tween 80:Ethanol:Saline—5:5:90 v/v/v), s.c. q.d.×14, Group 2 was treated with anti-PD-1 10 mg/kg i.p. q4d×4, Group 3 was treated with Compound 1 3 mg/kg s.c. q.d.×5D followed by 1 mg/kg s.c. q.d.×9D, Group 4 was treated with Compound 1 3 mg/kg s.c. q.d.×5D followed by 1 mg/kg s.c. q.d.×9D+anti-PD-1 10 mg/kg i.p. q4d×4, Group 5 was treated with Compound 1 1 mg/kg s.c. q.d.×14D and Group 6 was treated with Compound 1 1 mg/kg s.c. q.d.×14D+anti-PD-1 10 mg/kg i.p. q4d×4. The tumor sizes were measured three times per week during the treatment. The entire study was terminated on D64 after start of the treatment.
Animal Species: Mus musculus; Strain: BALB/c; Age: 6-8 weeks; Sex: female; Body weight (at treatment start): 20-24 g.
The CT26.WT tumor cells (ATCC, Cat #CRL-2638™) were maintained in vitro as a monolayer culture in RPMI 1640 medium supplemented with 10% heat inactivated fetal bovine serum, 100 U/mL penicillin and 100 μg/mL streptomycin, and L-glutamine (2 mM) at 37° C. in an atmosphere of 5% CO2 in air. The tumor cells were routinely subcultured twice weekly by trypsin-EDTA treatment. The cells growing to a confluency around 70%-80% were harvested and counted for tumor inoculation. The cultured CT26.WT cells were harvested, re-suspended in base medium with viability>90%. Each mouse was inoculated subcutaneously at the right flank with 3×10^5 in 0.05 ml base medium for tumor development.
The treatments were started on day 5 after tumor inoculation when the tumor size reached 39-61 mm^3 (average tumor size 49 mm^3). Each group consisted of 8 tumor bearing mice. The testing article was administrated at the dosing volume indicated to the mice according to the predetermined regimen as shown Table 2B-1. Testing article formulations were prepared according to standard procedures. Details regarding tumor measurements and endpoints, and statistical analysis are provided in EXAMPLE 3.
Tumor sizes were measured three times a week in two dimensions using a caliper, and the volume expressed in mm^3 using the formula: V=0.5 a×b^2 where a and b are the long and short diameters of the tumor, respectively. The tumor sizes were then used for the calculations of both tumor growth inhibition (TGI) and T/C values.
TGI is calculated for each group using the formula: […]
TVTreatment_DayN is the average tumor volume of a treatment group on a given day, TVTreatment_Day0 is the average tumor volume of the treatment group on the first day of treatment, TVVehicle_DayN is the average tumor volume of the vehicle control group on a given day, and TVVehicle_Day0 is the average tumor volume of the vehicle group on the first day of treatment.
The T/C value (in percent) is an indication of antitumor effectiveness, T/C (%)=RTVTreatment/RTVControl×100% (RTVTreatment: the mean RTV of the treatment group; RTVControl: the mean RTV of the vehicle treated group). RTV (relative tumor volume)=TVDayN/TVDay0. TVDayN and TVDay0 is the tumor volume on day N and Day 0 respectively. T/C (%)≤42% is considered as significant antitumor activity and <10% is considered as highly significant antitumor activity by the National Cancer Institute criteria.
Animal survival curve: When an individual animal reached to the termination endpoint (TV>2000 mm^3), the mouse was euthanized. The time from treatment initiation to the termination was deemed as its survival time. Survival curve was plotted by Kaplan-Meier method. Median survival time (MST) was calculated for each group. Increase of life span (ILS) was calculated according to the following formula: […]

Structure (SMILES): CC(=O)N[C@@H](Cc1c[nH]c2ccccc12)C(=O)N[C@@H](CCC(=O)C=[N+]=[N-])C(=O)OC(C)C [Compound 1, Isopropyl (S)-2-((S)-2-acetamido-3-(1H-indol-3-yl)propanamido)-6-diazo-5-oxohexanoate]
- Tumor volume (mm^3), Mean ± SEM (1 mg/kg qdx14 s.c., Day 0): 49 ± 2 mm^3
- Tumor volume (mm^3), Mean ± SEM (1 mg/kg qdx14 s.c., Day 3): 68 ± 6 mm^3
- Tumor volume (mm^3), Mean ± SEM (1 mg/kg qdx14 s.c., Day 6): 92 ± 8 mm^3
- Tumor volume (mm^3), Mean ± SEM (1 mg/kg qdx14 s.c., Day 8): 104 ± 9 mm^3
- Tumor volume (mm^3), Mean ± SEM (1 mg/kg qdx14 s.c., Day 10): 112 ± 9 mm^3
- Tumor volume (mm^3), Mean ± SEM (1 mg/kg qdx14 s.c., Day 13): 156 ± 18 mm^3
- Tumor volume (mm^3), Mean ± SEM (1 mg/kg qdx14 s.c., Day 15): 186 ± 21 mm^3
- Tumor volume (mm^3), Mean ± SEM (3 mg/kg qdx5 then 1 mg/kg qdx9 s.c., Day 0): 49 ± 2 mm^3
- Tumor volume (mm^3), Mean ± SEM (3 mg/kg qdx5 then 1 mg/kg qdx9 s.c., Day 3): 54 ± 2 mm^3
- Tumor volume (mm^3), Mean ± SEM (3 mg/kg qdx5 then 1 mg/kg qdx9 s.c., Day 6): 65 ± 3 mm^3
- Tumor volume (mm^3), Mean ± SEM (3 mg/kg qdx5 then 1 mg/kg qdx9 s.c., Day 8): 139 ± 14 mm^3
- Tumor volume (mm^3), Mean ± SEM (3 mg/kg qdx5 then 1 mg/kg qdx9 s.c., Day 10): 180 ± 20 mm^3
- Tumor volume (mm^3), Mean ± SEM (3 mg/kg qdx5 then 1 mg/kg qdx9 s.c., Day 13): 224 ± 25 mm^3
- Tumor volume (mm^3), Mean ± SEM (3 mg/kg qdx5 then 1 mg/kg qdx9 s.c., Day 15): 333 ± 41 mm^3
- ILS (%) (Compound 1 1 mg/kg): 40%
- MST (Compound 1 1 mg/kg): 28 days
- ILS (%) (Compound 1 3/1 mg/kg): 35%
- MST (Compound 1 3/1 mg/kg): 27 days
- RTV at day 15 (Cpd. 1 1 mg/kg): 3.84 ± 0.43
- T/C (%) (Cpd. 1 1 mg/kg): 15.23%
- TGI (%) (Cpd. 1 1 mg/kg): 188.18%
- Tumor Size (mm^3) at day 15, Mean ± SEM (Cpd. 1 1 mg/kg): 186 ± 21 mm^3
- RTV at day 15 (Cpd. 1 3/1 mg/kg): 4.79 ± 0.69
- T/C (%) (Cpd. 1 3/1 mg/kg): 19.00%
- TGI (%) (Cpd. 1 3/1 mg/kg): 84.90%
- Tumor Size (mm^3) at day 15, Mean ± SEM (Cpd. 1 3/1 mg/kg): 224 ± 25 mm^3
